From ChEMBL document CHEMBL4270587, “Difuran-substituted quinoxalines as a novel class of PI3Kα H1047R mutant inhibitors: Synthesis, biological evaluation and structure-activity relationship” (Eur J Med Chem, 2018)

Tests used:
[1] = system: HCT-116; test: Induction of apoptosis in human HCT116 cells assessed as necrotic cells at 6.25 uM after 24 hrs by Annexin V-FITC/propidium iodide staining based flow cytometry (reference value: […]); type: functional
[2] = system: HCT-116; test: Induction of apoptosis in human HCT116 cells assessed as late apoptotic cells at 25 uM after 24 hrs by Annexin V-FITC/propidium iodide staining based flow cytometry (reference value: 7.2%); type: functional
[3] = system: HCT-116; test: Induction of apoptosis in human HCT116 cells assessed as early apoptotic cells at 12.5 uM after 24 hrs by Annexin V-FITC/propidium iodide staining based flow cytometry (reference value: 2.24%); type: functional
[4] = system: HCT-116; test: Induction of apoptosis in human HCT116 cells assessed as necrotic cells at 25 uM after 24 hrs by Annexin V-FITC/propidium iodide staining based flow cytometry (reference value: […]); type: functional
[5] = system: HCT-116; test: Cell cycle arrest in human HCT116 cells assessed as accumulation at G1 phase after 24 hrs by propidium iodide staining based flow cytometry; type: functional
[6] = system: HCT-116; test: cells; details: Homo sapiens, HCT-116, 72 h
[7] = biological target: PI3-kinase p110-alpha/p85-alpha (Homo sapiens, UniProt P42336); test: Inhibition of recombinant full length PI3K p110alpha/p85alpha (unknown origin) expressed in baculovirus infected sf9 cells using PIP2 as substrate preincubated for 10 mins followed by ATP addition and measured after 45 mins by HTRF assay
[8] = system: HCT-116; test: Induction of apoptosis in human HCT116 cells assessed as increase in active caspase-8 protein expression after 72 hrs by Western blot analysis; type: functional, cell-based
[9] = system: HCT-116; test: Cell cycle arrest in human HCT116 cells assessed as accumulation at S-phase at 10 uM after 24 hrs by propidium iodide staining based flow cytometry (reference value: 29.81%); type: functional
[10] = biological target: Phosphatidylinositol 4,5-bisphosphate 3-kinase catalytic subunit gamma isoform (Homo sapiens, UniProt P48736); test: Inhibition of PI3K-gamma (unknown origin) after 40 mins by Kinase-Glo assay
[11] = system: HCT-116; test: Induction of apoptosis in human HCT116 cells assessed as live cells at 12.5 uM after 24 hrs by Annexin V-FITC/propidium iodide staining based flow cytometry (reference value: 89.89%); type: functional
[12] = system: HCT-116; test: Induction of apoptosis in human HCT116 cells assessed as increase in active caspase-3 protein expression after 72 hrs by Western blot analysis; type: functional, cell-based
[13] = biological target: T1, Phosphatidylinositol 4,5-bisphosphate 3-kinase catalytic subunit delta isoform (Homo sapiens, UniProt O00329); test: Inhibition of PI3K-delta (unknown origin) after 40 mins by Kinase-Glo assay
T1 sequence (O00329 whole entry): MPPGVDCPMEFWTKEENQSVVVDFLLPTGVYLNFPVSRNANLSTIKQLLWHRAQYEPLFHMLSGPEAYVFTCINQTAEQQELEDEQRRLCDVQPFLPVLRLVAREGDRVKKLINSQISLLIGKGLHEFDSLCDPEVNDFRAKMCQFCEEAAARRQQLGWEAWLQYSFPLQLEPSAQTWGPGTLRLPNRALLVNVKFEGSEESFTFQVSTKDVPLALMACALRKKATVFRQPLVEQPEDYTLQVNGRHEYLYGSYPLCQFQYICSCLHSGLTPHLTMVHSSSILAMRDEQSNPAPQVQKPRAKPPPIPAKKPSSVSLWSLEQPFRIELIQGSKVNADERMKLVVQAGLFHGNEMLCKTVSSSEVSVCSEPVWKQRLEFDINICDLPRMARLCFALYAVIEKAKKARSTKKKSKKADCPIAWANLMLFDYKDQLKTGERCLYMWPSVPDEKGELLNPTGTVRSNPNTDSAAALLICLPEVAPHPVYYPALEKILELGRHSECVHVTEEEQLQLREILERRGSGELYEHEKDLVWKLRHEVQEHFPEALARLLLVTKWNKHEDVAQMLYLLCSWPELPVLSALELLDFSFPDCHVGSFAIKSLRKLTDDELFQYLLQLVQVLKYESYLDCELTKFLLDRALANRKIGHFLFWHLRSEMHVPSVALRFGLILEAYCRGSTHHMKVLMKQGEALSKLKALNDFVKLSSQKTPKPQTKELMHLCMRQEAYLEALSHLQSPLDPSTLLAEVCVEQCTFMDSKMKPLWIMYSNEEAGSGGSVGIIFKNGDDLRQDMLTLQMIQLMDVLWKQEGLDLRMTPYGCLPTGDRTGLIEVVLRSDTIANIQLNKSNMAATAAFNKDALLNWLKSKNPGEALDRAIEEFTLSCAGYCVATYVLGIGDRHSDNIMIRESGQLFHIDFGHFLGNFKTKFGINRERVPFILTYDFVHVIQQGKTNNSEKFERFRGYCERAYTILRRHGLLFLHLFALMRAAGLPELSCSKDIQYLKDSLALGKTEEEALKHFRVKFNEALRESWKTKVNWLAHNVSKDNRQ

[14] = system: HCT-116; test: Induction of apoptosis in human HCT116 cells assessed as early apoptotic cells at 6.25 uM after 24 hrs by Annexin V-FITC/propidium iodide staining based flow cytometry (reference value: 2.24%); type: functional
[15] = system: HCT-116; test: Cell cycle arrest in human HCT116 cells assessed as accumulation at S-phase at 5 uM after 24 hrs by propidium iodide staining based flow cytometry (reference value: 29.81%); type: functional
[16] = system: HCT-116; test: Induction of apoptosis in human HCT116 cells assessed as late apoptotic cells at 6.25 uM after 24 hrs by Annexin V-FITC/propidium iodide staining based flow cytometry (reference value: 7.2%); type: functional
[17] = Inhibition of mTORC1 (unknown origin); parameters: species or system Homo sapiens
[18] = system: MCF7; test: cells; details: Homo sapiens, MCF7, 72 h
Description: Antiproliferative activity against human MCF7 cells after 72 hrs by CCK8 assay

[19] = system: HCT-116; test: Induction of apoptosis in human HCT116 cells assessed as early apoptotic cells at 25 uM after 24 hrs by Annexin V-FITC/propidium iodide staining based flow cytometry (reference value: 2.24%); type: functional
[20] = system: HCT-116; test: Induction of apoptosis in human HCT116 cells after 24 hrs by Annexin V-FITC/propidium iodide staining based flow cytometry; type: functional, cell-based
[21] = system: HCT-116; test: Induction of apoptosis in human HCT116 cells assessed as live cells at 25 uM after 24 hrs by Annexin V-FITC/propidium iodide staining based flow cytometry (reference value: 89.89%); type: functional
[22] = system: HCT-116; test: Cell cycle arrest in human HCT116 cells assessed as accumulation at G2/M-phase at 5 uM after 24 hrs by propidium iodide staining based flow cytometry (reference value: 31.47%); type: functional
[23] = system: HCT-116; test: Induction of apoptosis in human HCT116 cells assessed as necrotic cells at 12.5 uM after 24 hrs by Annexin V-FITC/propidium iodide staining based flow cytometry (reference value: […]); type: functional
[24] = system: HCT-116; test: Induction of apoptosis in human HCT116 cells assessed as late apoptotic cells at 12.5 uM after 24 hrs by Annexin V-FITC/propidium iodide staining based flow cytometry (reference value: 7.2%); type: functional
[25] = system: HCT-116; test: Induction of apoptosis in human HCT116 cells assessed as live cells at 6.25 uM after 24 hrs by Annexin V-FITC/propidium iodide staining based flow cytometry (reference value: 89.89%); type: functional
[26] = system: HCT-116; test: Cell cycle arrest in human HCT116 cells assessed as accumulation at G2/M-phase at 10 uM after 24 hrs by propidium iodide staining based flow cytometry (reference value: 31.47%); type: functional
[27] = system: HCT-116; test: Induction of apoptosis in human HCT116 cells assessed as increase in active caspase-9 protein expression after 72 hrs by Western blot analysis; type: functional, cell-based
[28] = biological target: PI3-kinase p110-alpha/p85-alpha (Homo sapiens, UniProt P42336, H1047R); test: Inhibition of recombinant full length PI3K p85alpha/p110alpha H1047R mutant (unknown origin) expressed in baculovirus infected sf9 cells using PIP2 as substrate preincubated for 10 mins followed by ATP addition and measured after 45 mins by HTRF assay
[29] = system: HCT-116; test: Cell cycle arrest in human HCT116 cells assessed as accumulation at G2/M-phase at 20 uM after 24 hrs by propidium iodide staining based flow cytometry (reference value: 31.47%); type: functional
[30] = system: HCT-116; test: Cell cycle arrest in human HCT116 cells assessed as accumulation at G1 phase at 20 uM after 24 hrs by propidium iodide staining based flow cytometry (reference value: 38.72%); type: functional
[31] = system: HCT-116; test: Cell cycle arrest in human HCT116 cells assessed as accumulation at G1 phase at 5 uM after 24 hrs by propidium iodide staining based flow cytometry (reference value: 38.72%); type: functional
[32] = system: HCT-116; test: Cell cycle arrest in human HCT116 cells assessed as accumulation at S-phase at 20 uM after 24 hrs by propidium iodide staining based flow cytometry (reference value: 29.81%); type: functional
[33] = biological target: Phosphatidylinositol 4,5-bisphosphate 3-kinase catalytic subunit beta isoform (Homo sapiens, UniProt P42338); test: Inhibition of PI3K-beta (unknown origin) after 40 mins by Kinase-Glo assay
[34] = system: HCT-116; test: Cell cycle arrest in human HCT116 cells assessed as accumulation at G1 phase at 10 uM after 24 hrs by propidium iodide staining based flow cytometry (reference value: 38.72%); type: functional

Chain of PI3-kinase p110-alpha/p85-alpha (Homo sapiens, UniProt P42336) (P27986 whole entry): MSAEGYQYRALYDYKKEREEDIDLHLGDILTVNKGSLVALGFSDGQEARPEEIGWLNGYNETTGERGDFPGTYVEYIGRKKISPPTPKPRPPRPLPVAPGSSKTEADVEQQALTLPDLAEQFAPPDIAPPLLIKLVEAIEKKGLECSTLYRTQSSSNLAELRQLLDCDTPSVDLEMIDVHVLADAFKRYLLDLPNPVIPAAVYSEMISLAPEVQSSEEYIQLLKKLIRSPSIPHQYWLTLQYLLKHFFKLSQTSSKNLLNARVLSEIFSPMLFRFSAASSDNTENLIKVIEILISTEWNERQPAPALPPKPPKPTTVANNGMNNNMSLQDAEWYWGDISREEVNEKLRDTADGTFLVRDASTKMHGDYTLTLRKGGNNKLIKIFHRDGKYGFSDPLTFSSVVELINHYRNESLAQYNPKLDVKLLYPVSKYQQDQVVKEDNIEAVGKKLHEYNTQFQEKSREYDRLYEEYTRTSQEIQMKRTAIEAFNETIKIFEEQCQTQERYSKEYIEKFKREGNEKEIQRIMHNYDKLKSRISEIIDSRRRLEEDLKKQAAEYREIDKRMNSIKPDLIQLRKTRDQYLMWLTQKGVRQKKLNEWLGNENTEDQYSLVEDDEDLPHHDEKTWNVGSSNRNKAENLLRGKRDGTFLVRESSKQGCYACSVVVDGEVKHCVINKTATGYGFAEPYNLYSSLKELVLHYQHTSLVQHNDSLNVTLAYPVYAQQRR
Chain of PI3-kinase p110-alpha/p85-alpha (Homo sapiens, UniProt P42336) (P42336 whole entry): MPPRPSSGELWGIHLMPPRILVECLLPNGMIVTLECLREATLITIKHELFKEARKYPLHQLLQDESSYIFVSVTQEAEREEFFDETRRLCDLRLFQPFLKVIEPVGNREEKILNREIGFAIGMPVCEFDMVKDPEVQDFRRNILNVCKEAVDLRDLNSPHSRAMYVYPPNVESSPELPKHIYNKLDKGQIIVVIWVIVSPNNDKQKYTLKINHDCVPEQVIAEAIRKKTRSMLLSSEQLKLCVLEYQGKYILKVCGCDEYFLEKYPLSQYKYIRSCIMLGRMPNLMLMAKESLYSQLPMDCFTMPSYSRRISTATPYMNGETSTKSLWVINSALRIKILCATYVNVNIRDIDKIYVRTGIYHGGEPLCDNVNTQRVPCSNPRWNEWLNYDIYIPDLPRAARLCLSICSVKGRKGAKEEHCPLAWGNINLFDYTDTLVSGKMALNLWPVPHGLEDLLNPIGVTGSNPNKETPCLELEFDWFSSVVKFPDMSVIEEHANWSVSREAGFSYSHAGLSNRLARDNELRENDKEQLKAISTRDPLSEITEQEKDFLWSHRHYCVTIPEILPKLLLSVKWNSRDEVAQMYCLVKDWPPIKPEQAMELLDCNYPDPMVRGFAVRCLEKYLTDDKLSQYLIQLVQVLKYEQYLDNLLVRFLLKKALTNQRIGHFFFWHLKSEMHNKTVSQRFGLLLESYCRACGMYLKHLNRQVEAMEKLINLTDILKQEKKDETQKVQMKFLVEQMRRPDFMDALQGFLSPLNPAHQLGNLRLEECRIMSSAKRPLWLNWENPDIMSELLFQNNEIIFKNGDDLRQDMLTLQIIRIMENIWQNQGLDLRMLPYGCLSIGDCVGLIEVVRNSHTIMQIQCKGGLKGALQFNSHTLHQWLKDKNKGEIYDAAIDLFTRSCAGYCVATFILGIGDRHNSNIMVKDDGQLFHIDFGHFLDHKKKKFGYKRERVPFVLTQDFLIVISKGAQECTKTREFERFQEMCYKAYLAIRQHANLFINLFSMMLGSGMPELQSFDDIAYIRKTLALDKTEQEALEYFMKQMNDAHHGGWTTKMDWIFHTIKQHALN
Chain of PI3-kinase p110-alpha/p85-alpha (Homo sapiens, UniProt P42336, H1047R) (P42336 whole entry H1047R, looked up): as the sequence (P42336 whole entry) above, with H1047R counted along it
Chain of Phosphatidylinositol 4,5-bisphosphate 3-kinase catalytic subunit beta isoform (P42338 whole entry, canonical isoform): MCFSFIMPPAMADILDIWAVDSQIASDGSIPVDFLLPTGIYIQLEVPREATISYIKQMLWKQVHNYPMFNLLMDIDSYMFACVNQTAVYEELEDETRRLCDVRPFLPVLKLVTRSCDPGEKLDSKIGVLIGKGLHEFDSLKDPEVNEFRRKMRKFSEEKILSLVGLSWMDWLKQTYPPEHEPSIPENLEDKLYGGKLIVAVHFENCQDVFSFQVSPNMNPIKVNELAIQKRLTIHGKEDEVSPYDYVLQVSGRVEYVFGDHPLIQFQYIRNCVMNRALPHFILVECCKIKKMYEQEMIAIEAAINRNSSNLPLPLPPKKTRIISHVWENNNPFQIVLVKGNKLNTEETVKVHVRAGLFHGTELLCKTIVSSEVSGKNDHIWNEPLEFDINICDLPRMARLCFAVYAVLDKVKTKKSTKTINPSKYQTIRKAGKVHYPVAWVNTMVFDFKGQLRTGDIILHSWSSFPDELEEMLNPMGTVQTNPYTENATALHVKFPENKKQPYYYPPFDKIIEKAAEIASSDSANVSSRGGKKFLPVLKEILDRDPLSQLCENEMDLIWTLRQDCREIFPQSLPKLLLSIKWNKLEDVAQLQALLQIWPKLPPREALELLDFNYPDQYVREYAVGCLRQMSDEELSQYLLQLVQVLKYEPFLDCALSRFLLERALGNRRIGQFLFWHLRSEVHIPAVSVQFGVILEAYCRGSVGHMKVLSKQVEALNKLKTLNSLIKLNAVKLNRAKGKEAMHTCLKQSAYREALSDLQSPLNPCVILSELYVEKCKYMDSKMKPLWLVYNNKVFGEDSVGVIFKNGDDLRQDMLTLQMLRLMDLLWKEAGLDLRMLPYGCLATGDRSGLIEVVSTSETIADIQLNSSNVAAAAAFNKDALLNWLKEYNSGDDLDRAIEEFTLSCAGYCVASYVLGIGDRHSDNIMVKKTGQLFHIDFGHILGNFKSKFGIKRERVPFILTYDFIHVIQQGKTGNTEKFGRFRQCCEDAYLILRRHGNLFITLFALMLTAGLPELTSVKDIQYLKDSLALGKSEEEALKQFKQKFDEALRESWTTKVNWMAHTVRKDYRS
Chain of Phosphatidylinositol 4,5-bisphosphate 3-kinase catalytic subunit gamma isoform (P48736 whole entry, canonical isoform): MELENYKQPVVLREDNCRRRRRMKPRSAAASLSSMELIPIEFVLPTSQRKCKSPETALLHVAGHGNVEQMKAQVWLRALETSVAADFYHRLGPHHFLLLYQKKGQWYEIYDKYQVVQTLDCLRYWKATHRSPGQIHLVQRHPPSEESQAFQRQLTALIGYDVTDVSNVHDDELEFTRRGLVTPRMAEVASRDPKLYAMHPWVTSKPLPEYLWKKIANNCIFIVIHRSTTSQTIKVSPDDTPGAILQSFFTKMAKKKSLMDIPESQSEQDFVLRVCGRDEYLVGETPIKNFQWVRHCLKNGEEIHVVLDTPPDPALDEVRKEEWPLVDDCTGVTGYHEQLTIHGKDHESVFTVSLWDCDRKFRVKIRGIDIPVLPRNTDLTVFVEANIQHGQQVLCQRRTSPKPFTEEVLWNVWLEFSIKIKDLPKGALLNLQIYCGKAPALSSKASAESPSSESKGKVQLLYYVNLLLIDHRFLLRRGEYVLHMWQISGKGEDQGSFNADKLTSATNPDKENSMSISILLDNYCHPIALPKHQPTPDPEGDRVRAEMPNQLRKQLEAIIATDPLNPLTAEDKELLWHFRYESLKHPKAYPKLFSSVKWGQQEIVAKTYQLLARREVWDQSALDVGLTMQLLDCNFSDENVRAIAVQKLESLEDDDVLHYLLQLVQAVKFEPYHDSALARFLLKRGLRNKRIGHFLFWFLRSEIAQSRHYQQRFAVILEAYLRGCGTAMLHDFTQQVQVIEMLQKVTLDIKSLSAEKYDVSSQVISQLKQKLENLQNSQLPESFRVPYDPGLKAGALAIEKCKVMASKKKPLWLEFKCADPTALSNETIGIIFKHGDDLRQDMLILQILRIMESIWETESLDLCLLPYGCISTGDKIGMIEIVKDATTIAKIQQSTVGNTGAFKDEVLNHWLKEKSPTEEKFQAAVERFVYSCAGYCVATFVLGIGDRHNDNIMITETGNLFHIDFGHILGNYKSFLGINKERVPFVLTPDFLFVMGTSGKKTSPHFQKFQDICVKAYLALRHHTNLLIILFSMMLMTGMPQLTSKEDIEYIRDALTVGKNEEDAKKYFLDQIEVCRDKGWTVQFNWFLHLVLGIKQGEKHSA

Question: With `Fc1ccccc1-c1cc2nc(-c3ccco3)c(-c3ccco3)nc2cc1Br` as the compound, how does the Activity [1] read?
Answer: 1.01%

Question: And the Activity [2]?
Answer: 23.77%

Question: And the Activity [3]?
Answer: 3.03%

Question: What about the Activity [4] of the same compound?
Answer: 0.88%

Question: And the Activity [5]?
Answer: Dose-dependent effect

Question: What about the IC50 [6] of the same compound?
Answer: 11.2 µM

Question: And the EC50 [7]?
Answer: 0.093 µM

Question: What about the Activity [8] of the same compound?
Answer: Dose-dependent effect

Question: What about the Activity [9] of the same compound?
Answer: 21.99%

Question: What about the EC50 [10] of the same compound?
Answer: 9.89 µM

Question: What about the Activity [11] of the same compound?
Answer: 80.29%

Question: And the Activity [12]?
Answer: Dose-dependent effect

Question: What about the EC50 [13] of the same compound?
Answer: 15.7 µM

Question: And the Activity [14]?
Answer: 3.57%

Question: What about the Activity [15] of the same compound?
Answer: 24.42%

Question: What about the Activity [16] of the same compound?
Answer: 10.63%

Question: What about the EC50 [17] of the same compound?
Answer: > 30 µM

Question: And the IC50 [18]?
Answer: 13.7 µM

Question: And the Activity [19]?
Answer: 13.97%

Question: What about the Activity [20] of the same compound?
Answer: Dose-dependent effect

Question: And the Activity [21]?
Answer: 61.38%

Question: What about the Activity [22] of the same compound?
Answer: 32.16%

Question: And the Activity [23]?
Answer: 0.96%

Question: What about the Activity [24] of the same compound?
Answer: 15.72%

Question: And the Activity [25]?
Answer: 84.79%

Question: And the Activity [26]?
Answer: 20.34%

Question: And the Activity [27]?
Answer: Dose-dependent effect

Question: What about the EC50 [28] of the same compound?
Answer: 0.137 µM

Question: And the Activity [29]?
Answer: 11%

Question: And the Activity [30]?
Answer: 70.72%

Question: What about the Activity [31] of the same compound?
Answer: 44.42%

Question: And the Activity [32]?
Answer: 18.28%

Question: What about the EC50 [33] of the same compound?
Answer: 3.34 µM

Question: And the Activity [34]?
Answer: 57.67%
